{"source": "ChEMBL document CHEMBL5113477", "about": "“Membrane acting Povarov-Doebner derived compounds potently disperse preformed multidrug resistant Gram-positive bacterial biofilms” (Eur J Med Chem, 2022)", "key": {"Enterococcus faecium [1]": {"system": "Enterococcus faecium", "experiment": "Antibiofilm activity against vancomycin-resistant Enterococcus faecium ATCC 700221 in TSB broth assessed as dispersal of glucose-induced biofilm preincubated with glucose for 48 hrs followed by compound addition and measured after 24 hrs by crystal violet staining based analysis", "type": "functional"}, "Staphylococcus aureus [2]": {"system": "Staphylococcus aureus", "experiment": "Antibacterial activity against Staphylococcus aureus ATCC 25923 assessed as reduction in visible bacterial growth incubated for 18 to 20 hrs by CLSI based broth microdilution analysis", "type": "functional", "details": "time 18-20 hrs"}, "Staphylococcus aureus [3]": {"system": "Staphylococcus aureus", "experiment": "Antibacterial activity against methicillin-resistant Staphylococcus aureus USA 300 assessed as reduction in visible bacterial growth incubated for 18 to 20 hrs by CLSI based broth microdilution analysis", "type": "functional", "details": "time 18-20 hrs"}, "Staphylococcus aureus [4]": {"system": "Staphylococcus aureus", "experiment": "Antibacterial activity against methicillin-resistant Staphylococcus aureus USA 300 (ARLG 1567) assessed as reduction in visible bacterial growth incubated for 18 to 20 hrs by CLSI based broth microdilution analysis", "type": "functional", "details": "time 18-20 hrs"}, "Staphylococcus aureus [5]": {"system": "Staphylococcus aureus", "experiment": "Antibacterial activity against methicillin-resistant Staphylococcus aureus USA 300 (ARLG 1568) assessed as reduction in visible bacterial growth incubated for 18 to 20 hrs by CLSI based broth microdilution analysis", "type": "functional", "details": "time 18-20 hrs"}, "Staphylococcus aureus [6]": {"system": "Staphylococcus aureus", "experiment": "Antibacterial activity against methicillin-resistant Staphylococcus aureus USA 300 (ARLG 1663) assessed as reduction in visible bacterial growth incubated for 18 to 20 hrs by CLSI based broth microdilution analysis", "type": "functional", "details": "time 18-20 hrs"}, "Staphylococcus aureus [7]": {"system": "Staphylococcus aureus", "experiment": "Bactericidal activity against persister methicillin-resistant Staphylococcus aureus USA 300 at 1 times MIC incubated for 2 to 8 hrs by time kill assay", "type": "functional, organism-based", "details": "time 2-8 hrs"}, "Staphylococcus aureus [8]": {"system": "Staphylococcus aureus", "experiment": "Bactericidal activity against persister methicillin-resistant Staphylococcus aureus ATCC 33592 at 1 times MIC incubated for 8 hrs by time kill assay", "type": "functional"}, "Staphylococcus aureus [9]": {"system": "Staphylococcus aureus", "experiment": "Inhibition of biofilm formation in methicillin-resistant Staphylococcus aureus USA 300 in TSB broth at 0.0078 to 4 ug/ml incubated for 48 hrs in presence of glucose by crystal violet staining based analysis", "type": "functional, organism-based", "details": "dose 0.0078-4 µg/ml"}, "Enterococcus faecium [10]": {"system": "Enterococcus faecium", "experiment": "Inhibition of biofilm formation in vancomycin-resistant Enterococcus faecium ATCC 700221 in TSB broth at 0.0078 to 4 ug/ml incubated for 48 hrs in presence of glucose by crystal violet staining based analysis", "type": "functional, organism-based", "details": "dose 0.0078-4 µg/ml"}, "Staphylococcus aureus [11]": {"system": "Staphylococcus aureus", "experiment": "(§1) Antibiofilm activity against methicillin-resistant Staphylococcus aureus ATCC 33592 in TSB broth assessed as dispersal of glucose-induced biofilm at 8 to 16 ug/ml preincubated with glucose for 48 hrs followed by compound addition and measured after 24 hrs by crystal violet staining based analysis", "type": "functional", "details": "dose 8-16 µg/ml, at 8 to 16 µg/mL"}, "Enterococcus faecium [12]": {"system": "Enterococcus faecium", "experiment": "Antibiofilm activity against vancomycin-resistant Enterococcus faecium ATCC 700221 in TSB broth assessed as dispersal of glucose-induced biofilm at 8 to 16 ug/ml preincubated with glucose for 48 hrs followed by compound addition and measured after 24 hrs by crystal violet staining based analysis", "type": "functional", "details": "dose 8-16 µg/ml, at 8 to 16 µg/mL"}, "Staphylococcus aureus [13]": {"system": "Staphylococcus aureus", "experiment": "as §1, with “Synergistic antibiofilm” for “Antibiofilm”, “USA 300” for “ATCC 33592”, “by measuring Nitroxoline MBEC” for “at 8 to 16 ug/ml”, “checkerboard assay” for “analysis”", "type": "functional"}, "Staphylococcus aureus [14]": {"system": "Staphylococcus aureus", "experiment": "(§2) Synergistic antibiofilm activity against methicillin-resistant Staphylococcus aureus USA 300 in TSB broth assessed as dispersal of glucose-induced biofilm by measuring fractional inhibitory concentration index preincubated with glucose for 48 hrs followed by compound addition and further incubated for 24 hrs in presence of Bithionol by crystal violet staining based checkerboard assay", "type": "functional"}, "Enterococcus faecalis [15]": {"system": "Enterococcus faecalis", "experiment": "(§3) Antibiofilm activity against vancomycin-resistant Enterococcus faecalis ATCC 51575 in TSB broth assessed as dispersal of glucose-induced biofilm preincubated with glucose for 48 hrs followed by compound addition and measured after 24 hrs by crystal violet staining based analysis", "type": "functional"}, "Enterococcus faecalis [16]": {"system": "Enterococcus faecalis", "experiment": "as §3, with “Synergistic antibiofilm” for “Antibiofilm”, “biofilm by measuring Bithionol MBEC” for “biofilm”, “checkerboard assay” for “analysis”", "type": "functional"}, "Enterococcus faecalis [17]": {"system": "Enterococcus faecalis", "experiment": "(§4) Synergistic antibiofilm activity against vancomycin-resistant Enterococcus faecalis ATCC 51575 in TSB broth assessed as dispersal of glucose-induced biofilm preincubated with glucose for 48 hrs followed by compound addition and further incubated for 24 hrs in presence of Nitroxoline by crystal violet staining based checkerboard assay", "type": "functional"}, "Enterococcus faecalis [18]": {"system": "Enterococcus faecalis", "experiment": "as §4, with “Bithionol” for “Nitroxoline”", "type": "functional"}, "Enterococcus faecalis [19]": {"system": "Enterococcus faecalis", "experiment": "as §4, with “glucose-induced biofilm by measuring fractional inhibitory concentration index preincubated with” for “glucose-induced biofilm preincubated with”", "type": "functional"}, "Enterococcus faecalis [20]": {"system": "Enterococcus faecalis", "experiment": "Synergistic antibiofilm activity against vancomycin-resistant Enterococcus faecalis ATCC 51575 in TSB broth assessed as dispersal of glucose-induced biofilm by measuring fractional inhibitory concentration index preincubated with glucose for 48 hrs followed by compound addition and further incubated for 24 hrs in presence of Bithionol by crystal violet staining based checkerboard assay", "type": "functional"}, "Enterococcus faecium [21]": {"system": "Enterococcus faecium", "experiment": "as §4, with “faecium” for “faecalis”, “700221” for “51575”", "type": "functional"}, "Enterococcus faecium [22]": {"system": "Enterococcus faecium", "experiment": "as §4, with “faecium” for “faecalis”, “700221” for “51575”, “Bithionol” for “Nitroxoline”", "type": "functional"}, "Staphylococcus aureus [23]": {"system": "Staphylococcus aureus", "experiment": "as §2, with “at 1 ug/ml” for “by measuring fractional inhibitory concentration index”, “Nitroxoline” for “Bithionol”, “based” for “based checkerboard”", "type": "functional", "details": "dose 1 µg/ml"}, "Staphylococcus aureus [24]": {"system": "Staphylococcus aureus", "experiment": "(§5) Synergistic antibiofilm activity against methicillin-resistant Staphylococcus aureus USA 300 in TSB broth assessed as dispersal of glucose-induced biofilm at 1 ug/ml preincubated with glucose for 48 hrs followed by compound addition and further incubated for 24 hrs in presence of 1 ug/ml Bithionol and AgNO3 by crystal violet staining based analysis", "type": "functional", "details": "dose 1 µg/ml"}, "Staphylococcus aureus [25]": {"system": "Staphylococcus aureus", "experiment": "as §5, with “at 2” for “at 1”, “of 0.5” for “of 1”", "type": "functional", "details": "dose 2 µg/ml"}, "Enterococcus faecium [26]": {"system": "Enterococcus faecium", "experiment": "as §5, with “vancomycin-resistant Enterococcus faecium ATCC 700221” for “methicillin-resistant Staphylococcus aureus USA 300”", "type": "functional", "details": "dose 1 µg/ml"}, "Enterococcus faecium [27]": {"system": "Enterococcus faecium", "experiment": "as §5, with “against vancomycin-resistant Enterococcus faecium ATCC 700221” for “against methicillin-resistant Staphylococcus aureus USA 300”, “at 2” for “at 1”, “of 0.5” for “of 1”", "type": "functional", "details": "dose 2 µg/ml"}, "Cell membrane [28]": {"system": "Cell membrane", "experiment": "Induction of membrane depolarization in Staphylococcus aureus ATCC 25923 at 2 ug/ml incubated for 1 hr by DiOC23 dye based flow cytometry analysis", "type": "subcellular", "details": "dose 2.0 µg/ml"}, "Cell membrane [29]": {"system": "Cell membrane", "experiment": "Induction of cell membrane disruption in Staphylococcus aureus ATCC 25923 assessed as appearance of hairy protrusions at 2 ug/ml incubated for 30 mins by SEM analysis", "type": "subcellular", "details": "dose 2.0 µg/ml"}, "Staphylococcus aureus [30]": {"system": "Staphylococcus aureus", "experiment": "Inhibition of cell wall synthesis in Staphylococcus aureus ATCC 25923 at 0.25 to 8 ug/ml by [glucosamine-6-3H]-N-acetyl-D-glucosamine incorporation assay", "type": "functional, organism-based", "details": "dose 0.25-8 µg/ml"}, "Staphylococcus aureus [31]": {"system": "Staphylococcus aureus", "experiment": "Inhibition of DNA synthesis in Staphylococcus aureus ATCC 25923 at 0.25 to 8 ug/ml by [methyl]-thymidine incorporation assay", "type": "functional, organism-based", "details": "dose 0.25-8 µg/ml"}, "Staphylococcus aureus [32]": {"system": "Staphylococcus aureus", "experiment": "Inhibition of RNA synthesis in Staphylococcus aureus ATCC 25923 at 0.25 to 8 ug/ml by [5-3H]-uridine incorporation assay", "type": "functional, organism-based", "details": "dose 0.25-8 µg/ml"}, "Erythrocyte": {"system": "Erythrocyte", "experiment": "Hemolytic activity in sheep RBC at 10 times MIC incubated for 30 mins by spectrophotometry", "type": "toxicity, cell-based, Ovis aries", "details": "0.5 h"}}, "note": "Active and inactive are the calls of the source. No cut-off for these calls is given here.", "data": [{"smiles": "Oc1ccc([C@@H]2Nc3ccc(S(F)(F)(F)(F)F)cc3[C@H]3[C@@H]4CC[C@@H](C4)[C@H]32)cc1", "values": [{"measurement": "MBEC", "setting": "Enterococcus faecium [1]", "result": 32, "unit": "µg/mL"}, {"measurement": "MBC", "setting": "Staphylococcus aureus [2]", "result": 2, "unit": "µg/mL"}, {"measurement": "MIC", "setting": "Staphylococcus aureus [2]", "result": 2, "unit": "µg/mL"}, {"measurement": "MBC", "setting": "Staphylococcus aureus [3]", "result": 2, "unit": "µg/mL"}, {"measurement": "MIC", "setting": "Staphylococcus aureus [3]", "result": 1, "unit": "µg/mL"}, {"measurement": "MBC", "setting": "Staphylococcus aureus [4]", "result": 2, "unit": "µg/mL"}, {"measurement": "MIC", "setting": "Staphylococcus aureus [4]", "result": 2, "unit": "µg/mL"}, {"measurement": "MBC", "setting": "Staphylococcus aureus [5]", "result": 2, "unit": "µg/mL"}, {"measurement": "MIC", "setting": "Staphylococcus aureus [5]", "result": 2, "unit": "µg/mL"}, {"measurement": "MBC", "setting": "Staphylococcus aureus [6]", "result": 2, "unit": "µg/mL"}, {"measurement": "MIC", "setting": "Staphylococcus aureus [6]", "result": 0.5, "unit": "µg/mL"}, {"measurement": "Activity", "setting": "Staphylococcus aureus [7]", "result": "Active"}, {"measurement": "Activity", "setting": "Staphylococcus aureus [8]", "result": 100, "unit": "%"}, {"measurement": "inhibition", "setting": "Staphylococcus aureus [9]", "result": "Active"}, {"measurement": "inhibition", "setting": "Enterococcus faecium [10]", "result": "Active"}, {"measurement": "Activity", "setting": "Staphylococcus aureus [11]", "result": 70, "unit": "%"}, {"measurement": "Activity", "setting": "Enterococcus faecium [12]", "result": 70, "unit": "%"}, {"measurement": "MBEC", "setting": "Staphylococcus aureus [13]", "result": 4, "unit": "µg/mL"}, {"measurement": "fractional inhibitory concentration index (FICI)", "setting": "Staphylococcus aureus [14]", "result": 0.25}, {"measurement": "MBEC", "setting": "Enterococcus faecalis [15]", "result": 16, "unit": "µg/mL"}, {"measurement": "MBEC", "setting": "Enterococcus faecalis [16]", "result": 4, "unit": "µg/mL"}, {"measurement": "MBEC", "setting": "Enterococcus faecalis [17]", "result": 4, "unit": "µg/mL"}, {"measurement": "MBEC", "setting": "Enterococcus faecalis [18]", "result": 2, "unit": "µg/mL"}, {"measurement": "fractional inhibitory concentration index (FICI)", "setting": "Enterococcus faecalis [19]", "result": 0.38}, {"measurement": "fractional inhibitory concentration index (FICI)", "setting": "Enterococcus faecalis [20]", "result": 0.5}, {"measurement": "MBEC", "setting": "Enterococcus faecium [21]", "result": 4, "unit": "µg/mL"}, {"measurement": "MBEC", "setting": "Enterococcus faecium [22]", "result": 1, "unit": "µg/mL"}, {"measurement": "Activity", "setting": "Staphylococcus aureus [23]", "result": ">80", "unit": "%"}, {"measurement": "Activity", "setting": "Staphylococcus aureus [24]", "result": ">80", "unit": "%"}, {"measurement": "Activity", "setting": "Staphylococcus aureus [25]", "result": ">80", "unit": "%"}, {"measurement": "Activity", "setting": "Enterococcus faecium [26]", "result": ">70", "unit": "%"}, {"measurement": "Activity", "setting": "Enterococcus faecium [27]", "result": ">70", "unit": "%"}, {"measurement": "Activity", "setting": "Cell membrane [28]", "result": "Active"}, {"measurement": "Activity", "setting": "Cell membrane [29]", "result": "Active"}, {"measurement": "inhibition", "setting": "Staphylococcus aureus [30]", "result": "Active"}, {"measurement": "inhibition", "setting": "Staphylococcus aureus [31]", "result": "Active"}, {"measurement": "inhibition", "setting": "Staphylococcus aureus [32]", "result": "Active"}, {"measurement": "Activity", "setting": "Erythrocyte", "result": "Non-Toxic"}]}]}
